“Also recorded” adds a separate entry of the source.

One series deals with rat carotid artery. As to the kind of experiment: Intravascular PDT treatment of rat carotid artery, histology (H&E) and clinical observation. The format is in vivo. The following applies: for Adverse symptoms in animals / PDT-induced damage in surrounding tissue (histology) / Acellularity within the media (H&E): blue light approximately 458 nm; for Acellularity in the medial wall / PDT effect / damage in surrounding tissue: balloon blood exclusion. From the text:
The central lumen of this catheter was designed to allow passage of an optical fiber having a diffuser at its distal end. The fiber was positioned such that the diffusing section was centered within the light delivery balloon, thereby providing intravascular light delivery with minimal absorption by blood. Excitation was typically provided by a laser source at the proximal end of the device, which was focused on the proximal end of the fiber-optic diffuser. Typical wavelengths used were 405 nm, 407 nm, 413 nm, 436 nm, 442 nm, 458 nm, 514 nm, 532 nm, and the general range of 570-610 nm.
The surgery was performed by doing a cutdown to allow access to the right femoral artery, followed by insertion of the light delivery catheter. The catheter was then passed up through the iliac and abdominal aorta, through the aortic arch and into the left carotid artery. Once in place, the balloon was inflated to approximately 1 atmosphere using a standard angioplasty inflation device. This caused the balloon to expand to the diameter of the artery, while still allowing the pressure to be kept low enough to prevent significant over-stretch of the artery.
Prior to this surgery, the rats were injected with a photosensitizer drug to allow uptake of the drug into the target tissues. […] Induction of acellularity is believed to inhibit intimal hyperplasia, the most common cause of restenosis in post-angioplasty patients.
FIG. 1 is a low magnification image of a tissue cross section taken from the throat of a rat that has received PDT therapy using intravascular red light. […] (A bare fiber diffuser was used here since complete blood elimination is not necessary at this wavelength due to the relatively high penetration of light through blood at this wavelength.) The animal was sacrificed 4 days after the PDT treatment, the throat section was harvested, embedded and stained using hematoxylin and eosin (H&E). […] A balloon was placed around the fiber light diffuser here since it is important to eliminate blood at these wavelengths due to the optical absorption of hemoglobin. […] The animal was sacrificed 5 days after the PDT treatment, the throat section was harvested, embedded and stained using hematoxylin and eosin (H&E). […] In fact, it is widely believed that viable smooth muscle cells in the media and adventia are the source of the proliferating cells that are responsible for restenosis.
In FIG. 9, the results are listed in the columns titled Max. Accell., listing the acellularity measured in the section for which the acellularity was highest and Sur. Tissue Damage, listing the degree of surrounding tissue damage. […] The desired objective was to achieve significant acellularity with minimal damage to surrounding tissue.

Series [1] is described as follows: Optical absorption spectrum of MV6401. The class given is physicochemical. The following applies: near 458 nm and 532 nm (FIG. 8).
A short description of series [2]: Uptake of the drug within the target tissues by fluorescence microscopy and HPLC. The format is in vivo. Particulars: rat, systemic administration. Here is the method:
Prior to this surgery, the rats were injected with a photosensitizer drug to allow uptake of the drug into the target tissues. Uptake of the drug within the target tissues was confirmed by fluorescence microscopy and high pressure liquid chromatography (HPLC). […] Induction of acellularity is believed to inhibit intimal hyperplasia, the most common cause of restenosis in post-angioplasty patients. […] To our knowledge, such efficacy using intravascular light has never been achieved previously with PDT. […] This was notable since the target tissues appeared to contain a higher drug concentration and they were also located closest to the light source.

In the next series the test system is coronary artery. The series can be described thus: Intravascular PDT treatment of swine coronary artery, heart harvested after treatment. The format is in vivo.
Where [3] appears, read: rat carotid, approximately 4 hours after drug injection (FIG. 14).
Setting [4] is: rat carotid, intravascular light at wavelengths within the disclosed 390-610 nm range.
[5] abbreviates: rat carotid, approximately 2 hours after drug injection (FIG. 15).
[6] abbreviates: intravascular red light, high PDT doses.

`CC(=O)[O-].CC(=O)[O-].CCc1c(CC)c2cc3nc(cnc4cc(OCCOCCOCCOC)c(OCCOCCOCCOC)cc4ncc4nc(cc1[n-]2)C(CCCO)=C4C)C(C)=C3CCCO.O.[Lu+3]` [LuTex, lutetium texaphyrin]: in the series with rat carotid artery (setting [3]), the “Adverse symptoms in animals” value is given as “no animals displayed adverse symptoms” and the “PDT-induced damage in surrounding tissue (histology)” value is “minimal evidence of PDT-induced damage in surrounding tissue”. The “Acellularity within the media (H&E)” value in the series on rat carotid artery (rat carotid, approximately 4 hours after drug injection, 3 days after PDT (FIG. 14)) is “nearly complete acellularity within the media”. In addition, in the series on rat carotid artery (setting [4]), the “Acellularity in the medial wall” value is “acellularity was induced in the medial wall” and the “PDT effect / damage in surrounding tissue” value (shortened to “PDT effect / damage”) was “largely sparing the surrounding tissue”.
In the case of benzoporphyrin derivative [BPD], in the series on rat carotid artery (setting [5]), the “Adverse symptoms in animals” value was “no animals displayed adverse symptoms” and the “PDT-induced damage in surrounding tissue (histology)” value is “minimal evidence of PDT-induced damage in surrounding tissue”. In the series with rat carotid artery (rat carotid, approximately 2 hours after drug injection, 3 days after PDT (FIG. 15)), the “Acellularity within the media (H&E)” value is recorded as “nearly complete acellularity within the media”. Besides, in the series with rat carotid artery (setting [4]), the “Acellularity in the medial wall” value is “acellularity was induced in the medial wall” and the “PDT effect / damage” value is “largely sparing the surrounding tissue”.
On to `O=C([O-])c1c(Cl)c(Cl)c(Cl)c(Cl)c1-c1c2cc(I)c(=O)c(I)c-2oc2c(I)c([O-])c(I)cc12.[Na+].[Na+]` [Rose Bengal], for which, in the series on rat carotid artery (setting [4]), the “Acellularity in the medial wall” value is on record as “acellularity was induced in the medial wall” and the “PDT effect / damage” value is on record as “largely sparing the surrounding tissue”.
For the compound `C=Cc1c(C)c2[n]3c1=CC1=NC(=Cc4c(C)c5c([n]4[In]3[Cl])C(=C3N=C(C=2)[C@@H](C)[C@@H]3CCC(=O)OC)CC5=O)C(CC)=C1C` [MV6401], the “Absorption (molar extinction coefficient)” value in series [1] is reported as more than 1000 L cm^−1 M^−1. The “Localization / uptake of photosensitizer in target tissue versus surrounding tissue” value in series [2] was “more strongly localized in the target tissue; also recorded: taken up preferentially in the target vessel tissue”. In addition, in the series on rat carotid artery (setting [4]), the “Clinical evidence of adverse PDT treatment effect” value is “no clinical evidence of an adverse PDT treatment effect”, the “Acellularity in the medial wall” value is “acellularity was induced within the medial wall; also recorded: acellularity was induced in the medial wall” and the “PDT effect / damage” value is on record as “very minimal PDT effect in the surrounding tissue; also recorded: largely sparing the surrounding tissue”. Besides, in the series with rat carotid artery (rat carotid, intravascular red/infrared light), the “PDT treatment effect in the target tissue (histology)” value was “little or no PDT treatment effects in the target tissue”. Also, in the series with rat carotid artery (rat, 2 μmol/kg systemic, 458 nm, 100 J/cm^2, light 4 hours post drug (FIG. 3)), the Clinical symptoms entry was “no adverse clinical symptoms”. In addition, in the series with rat carotid artery (rat, 2 μmol/kg systemic, 458 nm, 100 J/cm^2, light 4 hours post drug (FIG. 4)), the “Acellularity in the vessel wall” value was “complete acellularity was induced in the vessel wall”. Besides, the “Surrounding tissue damage (inflammation and necrosis, H&E)” value in the series with rat carotid artery (rat, 2 μmol/kg systemic, 458 nm, 100 J/cm^2, light 4 hours post drug, balloon device, sacrificed 5 days after PDT (FIG. 3)) was “minimal PDT-induced inflammation and necrosis”. Moreover, the “Acellularity within the vessel media and adventia” value in the series with coronary artery (blue (458 nm) or green (532 nm) intravascular light, surrounding tissue damage of the order of FIG. 6 and 7) is “complete acellularity can be achieved within the vessel media and adventia”. Moreover, the “PDT-induced damage to myocardium / surrounding tissue” value with coronary artery (intravascular blue light (458 nm) (FIG. 6)) is “minimal damage to the myocardium”. The “PDT-induced damage to myocardium / surrounding tissue” value with coronary artery (intravascular green light (532 nm) (FIG. 7)) is “minimal damage to the myocardium”. Further, in the series on coronary artery (setting [6]), the “Acellularity in media or adventia of the vessel” value is recorded as “insignificant acellularity was induced in the media or adventia of the vessel” and the Clinical reactions entry is reported as “severe adverse clinical reactions”.

Source of the values: patent US6887862B2, “Method for improving treatment selectivity and efficacy using intravascular photodynamic therapy” (Miravant Systems, Inc., priority 2001, dated 2005).
